What all share (assay type): in vivo, C57BL/6 mice
In assay [1] the test system is inflammatory cells in BAL fluid. Description: Inflammatory cell count in BAL fluid of OVA/LPS-sensitized asthma animal models. To be noted: SU5416 1 mg/kg or 10 mg/kg i.p. 30 min before OVA/LPS sensitization (days 0, 1, 2, 7); 48 hours after last OVA injection (day 24); FIG. 9. As for the experimental part: (§1) To construct asthma animal models, C57BL/6 (female, 6 weeks old) mice were divided into groups, each consisting of five mice and sensitized with 75 μg of ovalbumn (OVA) as an allergen and 10 μg of an endotoxin (lipopolysaccharide, LPS) as an adjuvant via an intranasal route on Day 0, 1, 2 and 7. Some mice in experiment groups were intraperitoneally injected with SU5416 (purchased from Sigma) at a dose of 1 mg/kg or 10 mg/kg, or anti-Flk-1 (purchased from R&D systems) at a dose of 0.1, 1 or 10 μg 30 min before the intranasal administration of OVA and LPS. On days 14, 15, 21 and 22, OVA (50 μg) was intranasally administered to the animals after anesthesia.
The mice were examined for pulmonary inflammation 6 hours (day 22) and 48 hours (day 24) after the last OVA administration. […]
(§2) The BAL fluid was centrifuged at 4° C. at 3000 rpm for 10 min and the cell pellet thus formed was suspended in PBS (phosphate buffered saline). […] In a 1000× magnified sight under an optical microscope, 300 or more inflammatory cells were observed and classified into macrophages, lymphocytes, neutrophils, and eosinophils which were then counted. In addition, levels of gamma interferon, responsible for Th1 inflammatory response, and IL-17 and IL-6, both responsible for Th17 inflammatory response, in the BAL fluid were quantified by ELISA. […]

Assay [2] relates to immune cells isolated from local lymph nodes. Description: Cytokine secretion by local lymph node immune cells in response to allergen (OVA) stimulus, ELISA. To be noted: SU5416 upon sensitization; six hours after three OVA challenges (day 21); FIGS. 10b and 10c. The protocol:
To construct asthma animal models, C57BL/6 (female, 6 weeks old) mice were divided into groups, each consisting of five mice and sensitized with 75 μg of ovalbumn (OVA) as an allergen and 10 μg of an endotoxin (lipopolysaccharide, LPS) as an adjuvant via an intranasal route on Day 0, 1, 2 and 7. Some mice in experiment groups were intraperitoneally injected with SU5416 (purchased from Sigma) at a dose of 1 mg/kg or 10 mg/kg, or anti-Flk-1 (purchased from R&D systems) at a dose of 0.1, 1 or 10 μg 30 min before the intranasal administration of OVA and LPS. […]
In this regard, the mice were anesthetized by intraperitoneal injection of a mixture of ketamin and xylazine and allowed to undergo thoracotomy to expose the trachea into which a catheter was then inserted, followed by ligation. The airway was washed by injecting 1 mL of sterile saline twice to obtain bronchoalveolar lavage (BAL) fluid. For the analysis of T lymphocytes in pulmonary tissues, cells were extracted from the local lymph nodes of the lung excised.
The cells obtained from the lymph nodes were incubated for 72 hours in RPMI (Gibco) supplemented with 100 μg/ml OVA, 10% FBS, and an antibiotic before respective cytokines responsible for Th1-, Th17- and Th2-mediated inflammatory responses were quantified using ELISA. […]

Assay [3] concerns Th1- and Th17-mediated immune responses. Description: Overall conclusion on lung inflammation and Th1/Th17 immune responses in asthma animal models. As for the experimental part: VEGFR inhibitors were assayed for inhibitory activity in asthma animal models suffering from Th17-mediated inflammation.
as §1
The mice were examined for pulmonary inflammation 6 hours (day 22) and 48 hours (day 24) after the last OVA administration. In this regard, the mice were anesthetized by intraperitoneal injection of a mixture of ketamin and xylazine and allowed to undergo thoracotomy to expose the trachea into which a catheter was then inserted, followed by ligation. The airway was washed by injecting 1 mL of sterile saline twice to obtain bronchoalveolar lavage (BAL) fluid. For the analysis of T lymphocytes in pulmonary tissues, cells were extracted from the local lymph nodes of the lung excised.

For assay [4], the system named is gamma interferon, IL-17 and IL-6 in BAL fluid. The experiment in a line: Cytokine levels (gamma interferon, IL-17, IL-6) in BAL fluid of OVA/LPS asthma animal models by ELISA. As for the experimental part: as §1
The mice were examined for pulmonary inflammation 6 hours (day 22) and 48 hours (day 24) after the last OVA administration. In this regard, the mice were anesthetized by intraperitoneal injection of a mixture of ketamin and xylazine and allowed to undergo thoracotomy to expose the trachea into which a catheter was then inserted, followed by ligation. The airway was washed by injecting 1 mL of sterile saline twice to obtain bronchoalveolar lavage (BAL) fluid. […]
as §2
Mice in the experimental groups were intraperitoneally injected with 0.1, 1.0 and 10 μg of a monoclonal antibody against VEGFR-2 (anti-Flk-1, R&D Systems) while mice in the control group were intraperitoneally injected with PBS. […] BAL fluid obtained 24 hours after the sensitization (day 1) was quantitatively analyzed for inflammatory cell and IL-6 levels and the results are shown in FIG. 13.
Background: An ELISA detects its analyte on a solid surface through an enzyme-linked reagent.

Setting [5] is: SU5416 upon sensitization, six hours after three rounds of OVA challenge (day 21), FIG. 10a.

Molecules are shown by their SMILES.

Turning to `Cc1cc(C)c(/C=C2\C(=O)Nc3ccccc32)[nH]1` [SU5416, Semaxanib], in assay [1], the “inflammatory cell count in BAL fluid” value was “reduced in a dose-dependent manner”. Moreover, in assay [2], the “IL-17 secreted by local lymph node immune cells in response to allergen stimulus” value is reported as “significantly decreased level” and the “gamma interferon secreted by local lymph node immune cells in response to allergen stimulus” value is on record as “significantly decreased level”. Moreover, the “inflammation in the lung” value in assay [3] (summary of Examples 1 and 2) is listed as “excellently suppress inflammation in the lung”. Moreover, in assay [3] (summary of Examples 1 and 2, immunological perspective), the “Th1- and Th17-mediated immune responses” value is “suppressive of Th1- and Th17-mediated immune responses”. In addition, in assay [4] (SU5416 10 mg/kg, 6 hours after three rounds of sensitization with OVA and LPS, vs OVA/LPS_sham, FIG. 11), the “IL-6 level in BAL fluid” value was “lower amounts of IL-6 than did the control”. Further, in assay [4] (setting [5]), the “level of IL-17 in BAL fluid” value is “significantly decrease” and the “level of gamma interferon in BAL fluid” value is given as “significantly decrease”.

For the origin of these results see patent US8653146B2, “Method for treating Th17 inflammatory disease through inhibition of vascular endothelial growth factor receptors and pharmaceutical composition therefor” (Postech Academy-Industry Foundation, priority 2009, dated 2014).
